How the values were obtained:
[1] = test system: MDR-1; assay: MDR-1 immunostaining (UIC2-PE) and flow cytometry; assay type: cell-based
Text: HeLa cells infected with different retroviral vectors, stained with monoclonal antibody MDR1 (UIC2) PE conjugate and analyzed on a fluorescence-activated cell sorting (FACS) machine. […] The middle left panel is the 8.2 peptide control showing no effect upon MDR expression. […] The right hand panels verify that the selected clone RGP8.5.1 regulates MDR expression according to induced vector expression. Upper right is the HeLa control; middle right is vector expression in absence of presumed peptide expression; lower right is after derepression of peptide expression showing induced MDR expression correlating with GFP (peptide) expression.
The cells were stained with monoclonal antibody MDR1 (UIC2) PE conjugate and analyzed on FACS.
Immunostaining and flow cytometry. 2.5×10^5 Hela cells were washed once with PBS and then incubated with […] PBS buffer containing 0.1% BSA plus […] monoclonal MDR-1 antibody (UIC2)-Phycoerythrin (PE) conjugate (Immunotech) at room temperature for 15 minutes. Subsequently, the cells were washed once with 2 ml PBS buffer, resuspended in 0.5 ml PBS buffer and analyzed on FACS.

[2] = test system: HeLa cells; assay: Taxol challenge of RGP8.5 expressing HeLa clone, visualized for cell survival; assay type: cell-based; conditions: 100 nM Taxol for 48 hours, absence of Doxycycline (peptide expression on)
Method: Subsequently, the cells were incubated with 100 nM Taxol for 48 hours and then visualized for cell survival.
We tested to determine whether survival to Taxol challenge correlated with induction of the peptide expression using Dox induction.

[3] = target: T1, proteasome alpha type subunit XAPC7 (Homo sapiens, UniProt O14818); assay: Yeast two-hybrid screening with RGP8.5 bait; assay type: binding; conditions: of 26 positive clones from 20 million transformants
T1 construct: expressed in transfected cells; host or cells: yeast (two-hybrid transformants)
T1 sequence (O14818 1-248): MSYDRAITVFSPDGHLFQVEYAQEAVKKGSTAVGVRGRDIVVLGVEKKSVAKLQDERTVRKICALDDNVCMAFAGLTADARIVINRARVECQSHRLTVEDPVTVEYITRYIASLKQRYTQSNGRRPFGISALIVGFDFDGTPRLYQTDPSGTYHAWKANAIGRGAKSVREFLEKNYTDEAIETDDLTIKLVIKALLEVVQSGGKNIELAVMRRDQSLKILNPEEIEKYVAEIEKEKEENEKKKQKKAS
Text: (§1) Yeast two-hybrid screening. The bait used for two-hybrid screening was RGP8.5 fused to the Gal4 DNA binding domain containing a three glycine linker/spacer. A cDNA library made from a combination of multiple human tissues (brain, lymphocyte, stomach, pancreas, liver, intestine) was used for the screening. 20 million transformants were screened. 27 His^+/LacZ^+ colonies were retrieved for further analysis.

[4] = target: T2, proteasome alpha type subunit Zeta (Homo sapiens, UniProt P28066); assay: Yeast two-hybrid screening with RGP8.5 bait; assay type: binding; conditions: of 26 positive clones from 20 million transformants
T2 construct: expressed in transfected cells; host or cells: yeast (two-hybrid transformants)
T2 sequence (P28066 1-241): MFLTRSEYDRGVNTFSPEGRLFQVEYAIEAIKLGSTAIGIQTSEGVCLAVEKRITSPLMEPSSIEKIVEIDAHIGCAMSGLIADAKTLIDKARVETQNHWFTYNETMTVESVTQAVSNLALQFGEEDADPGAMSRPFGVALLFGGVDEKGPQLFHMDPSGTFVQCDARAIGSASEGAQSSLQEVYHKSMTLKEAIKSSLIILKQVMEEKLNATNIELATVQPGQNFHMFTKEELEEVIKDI
Text: as §1

[5] = target: T3, Zeta (Homo sapiens, UniProt P28066); assay: Biotinylated RGP8.5 peptide affinity purification from HeLa cell extract; assay type: binding; conditions: streptavidin beads
T3 construct: endogenous in cells; host or cells: HeLa cell extract
Method: (§2) HeLa cell extract were pre-cleared with a streptavidin column. The biotinylated RG8.5 peptide was then added to the cell lysate and allowed to mix overnight at 4° C. Next day streptavidin agarose beads were incubated with the cell extract for 3 hours at 4° C. After washing the beads five times with lysis buffer, the associated proteins were eluted with 2× protein sample buffer, resolved on SDS-PAGE and detected with monoclonal antibody against Zeta and XAPC7 proteasome subunits.
(§3) Transfection, immunoprecipitation and western blot. A calcium phosphate transfection method was used for all transfections of test constructs into 293T cells. Cells were lysed in […] of TNT buffer (20 mM Tris-HCl pH7.5, 200 mM NaCl and 1% Triton-X100), supplemented with 1 mM DTT and protease cocktail (Boehringer Mannheim). The cell extracts were incubated with […] anti-flag antibody conjugated beads (Babco) at 4° C. The beads were spun down and washed with […] TNT buffer for four times. For immunoprecipitation with biotinylated RG8.5 peptide, 3 10^6 Hela cells were lysed in a buffer containing 20 mM HEPES pH7.4, 150 mM NaCl and 1% NP40 and precleaned with a Streptavidin column (Pierce, Rockford, Ill.) to reduce non-specific binding. 3 ml of biotinylated RG8.5 peptide (1 mg/ml) in DMSO was added to the cell lysate and allowed to mix overnight at 4 ° C. […]

[6] = target: T4, XAPC7 (Homo sapiens, UniProt O14818); assay: as above; assay type: binding; conditions: streptavidin beads
T4 construct: endogenous in cells; host or cells: HeLa cell extract
Method: as §2, §3

[7] = test system: Bcl-xL; assay: Endogenous anti-apoptotic protein level; assay type: cell-based; conditions: cells expressing RGP8.5, presence or absence of Dox; data not shown
[8] = test system: MDR-1; assay: Rhodamine123 efflux assay; assay type: cell-based; conditions: RGP8.5 HeLa clone without Dox; diminished with Dox
Method: FIG. 2D depicts a Rhodamine 123 efflux assay of a RGP8.5 expressing HeLa clone. Cells were incubated with or without 200 ng/ml Dox for 4 days. Subsequently the cells were stained with 1 nM Rhodamine 123 and analyzed on FACS. In the top panels the GFP positive cells (striped peak, top left) were seen to extrude Rhodamine 123 from cells (striped peak, top right). […] The bottom two panels show cells in which the tTA promoter was shut down in the presence of Dox.
Rhodamine123 efflux assay. 2.5×10^5 Hela cells were incubated in 1 ml color-free MEM with 1 mM Rhodamine123 for 15 minutes at 37° C. The cells were spun down and resuspended in 1 ml MEM without Rhodamine123 and incubated for an additional 15 minutes. The Rhodamine123 retention was analyzed on FACS (Lee, J. S. et al., (1994) Mol. Pharmacol., 46, 627-638).

positive yeast two-hybrid clones encoding XAPC7 [3]: 25 | positive yeast two-hybrid clones encoding Zeta [4]: 1 | binding of endogenous Zeta subunit [5]: shown to bind | binding of endogenous XAPC7 subunit [6]: shown to bind
Substance: MGEFLIVKVVWGRMVCWV-LVVRRFVLVIVLENSLSSNQGPP [RGP8.5]
regulating the MDR expression levels as compared to MG132 [1]: more effective | MDR-1 expression as a function of peptide expression (FACS) ([1]; HeLa cells, GFP as surrogate peptide expression indicator): apparently regulated | resistance to Taxol treatment [2]: strong resistance | Bcl-xL expression level [7]: same expression level | Rhodamine 123 efflux [8]: clearly was able to extrude
